Source: patent publication US20050234046A1 (Kalypsys, Inc., priority 2004, published 2005)

Experiments:
Assay in all cases: Transient transfection (transactivation) assay in CV-1 cells, GAL4-PPAR chimera, luciferase reporter
Format in all cases: cell-based
PPAR gamma = target: T1, PPAR gamma (Homo sapiens, UniProt P37231)
T1 construct: expressed in transfected cells; host or cells: CV-1 cells
T1 sequence (P37231 238-503 limits assumed): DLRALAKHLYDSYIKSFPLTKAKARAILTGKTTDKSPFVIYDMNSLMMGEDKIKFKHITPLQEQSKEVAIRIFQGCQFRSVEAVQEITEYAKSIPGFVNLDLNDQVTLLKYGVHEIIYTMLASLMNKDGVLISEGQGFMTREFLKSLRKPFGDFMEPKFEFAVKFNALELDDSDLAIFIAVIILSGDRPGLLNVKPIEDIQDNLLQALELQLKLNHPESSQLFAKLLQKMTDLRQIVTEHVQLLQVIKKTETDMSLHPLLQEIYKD

PPAR delta = target: T2, PPAR delta (Homo sapiens, UniProt Q03181)
T2 construct: expressed in transfected cells; host or cells: CV-1 cells
T2 sequence (Q03181 211-439 limits assumed): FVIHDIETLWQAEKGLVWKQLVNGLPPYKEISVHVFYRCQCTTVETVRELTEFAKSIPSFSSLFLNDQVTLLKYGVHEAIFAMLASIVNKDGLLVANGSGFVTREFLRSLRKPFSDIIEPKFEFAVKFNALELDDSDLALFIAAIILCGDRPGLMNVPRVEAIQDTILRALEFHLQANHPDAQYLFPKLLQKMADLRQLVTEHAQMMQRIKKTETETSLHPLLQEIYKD

PPAR alpha = target: T3, PPAR alpha (Homo sapiens, UniProt Q07869)
T3 construct: expressed in transfected cells; host or cells: CV-1 cells
T3 sequence (Q07869 239-466 limits assumed): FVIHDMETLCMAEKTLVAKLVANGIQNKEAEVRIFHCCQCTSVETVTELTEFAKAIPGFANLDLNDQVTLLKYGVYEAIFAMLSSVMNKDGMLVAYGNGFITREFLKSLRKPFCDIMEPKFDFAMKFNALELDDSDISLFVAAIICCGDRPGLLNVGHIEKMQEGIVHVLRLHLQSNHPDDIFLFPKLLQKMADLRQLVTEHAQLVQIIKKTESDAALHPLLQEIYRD
Outline: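 EC50 and efficacy come from a luciferase read-out after 20-24 hours of compound exposure (vehicle 1% DMSO) in transiently transfected CV-1 cells. These cells express a GAL4-PPAR ligand-binding-domain chimera plus a reporter with four or five GAL4 binding sites, and are kept in phenol-red free DME with 5% delipidated calf serum.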

EC50 (PPAR gamma)	EC50 (PPAR delta)	EC50 (PPAR alpha)	SMILES
< 5 µM	< 5 µM	5 to 100 µM	Cc1cc(S(=O)(=O)N2CCN(c3ccc(C(F)(F)F)cn3)CC2)cc(CC(=O)O)c1Br [Example 196, {2-Bromo-3-methyl-5-[4-(5-trifluoromethyl-pyridin-2-yl)-piperazine-1-sulfonyl]-phenyl}-acetic acid]
5 to 100 µM	< 5 µM	> 100 µM	Cc1cc(S(=O)(=O)N2[C@H](C)CN(c3ccc(C(F)(F)F)cn3)C[C@@H]2C)cc(CC(=O)O)c1Br [Example 197, {2-Bromo-5-[2,6-dimethyl-4-(5-trifluoromethyl-pyridin-2-yl)-piperazine-1-sulfonyl]-3-methyl-phenyl}-acetic acid]
5 to 100 µM	< 5 µM	5 to 100 µM	Cc1cc(S(=O)(=O)N2[C@H](C)CN(c3ccc(OC(F)(F)F)cc3)C[C@@H]2C)cc(CC(=O)O)c1Br [Example 198, {2-Bromo-5-[2,6-dimethyl-4-(4-trifluoromethoxy-phenyl)-piperazine-1-sulfonyl]-3-methyl-phenyl}-acetic acid]
5 to 100 µM	< 5 µM	5 to 100 µM	O=C(O)Cc1cc(Br)cc(S(=O)(=O)N2CCN(c3ccc(C(F)(F)F)cn3)CC2)c1 [Example 199, {3-Bromo-5-[4-(5-trifluoromethyl-pyridin-2-yl)-piperazine-1-sulfonyl]-phenyl}acetic acid]
5 to 100 µM	< 5 µM	5 to 100 µM	C[C@@H]1CN(c2ccc(OC(F)(F)F)cc2)C[C@H](C)N1S(=O)(=O)c1cc(Br)cc(CC(=O)O)c1 [Example 200, {3-Bromo-5-[2,6-dimethyl-4-(4-trifluoromethoxy-phenyl)-piperazine-1-sulfonyl]-phenyl}-acetic acid]
5 to 100 µM	< 5 µM	5 to 100 µM	O=C(O)Cc1cc(Br)cc(S(=O)(=O)N2CCN(c3ccc(OC(F)(F)F)cc3)CC2)c1 [Example 201, {3-Bromo-5-[4-(4-trifluoromethoxy-phenyl)-piperazine-1-sulfonyl]-phenyl}-acetic acid]
5 to 100 µM	< 5 µM	5 to 100 µM	O=C(O)Cc1cc(C(F)(F)F)cc(S(=O)(=O)N2CCN(c3ccc(C(F)(F)F)cc3)CC2)c1 [Example 202, {3-Trifluoromethyl-5-[4-(4-trifluoromethyl-phenyl)-piperazine-1-sulfonyl]-phenyl}-acetic acid]
5 to 100 µM	< 5 µM	5 to 100 µM	O=C(O)Cc1cc(C(F)(F)F)cc(S(=O)(=O)N2CCN(c3ccc(C(F)(F)F)cn3)CC2)c1 [Example 203, {3-Trifluoromethyl-5-[4-(5-trifluoromethyl-pyridin-2-yl)-piperazine-1-sulfonyl]-phenyl}-acetic acid]
> 100 µM	< 5 µM	> 100 µM	C[C@@H]1CN(c2ccc(C(F)(F)F)cn2)C[C@H](C)N1S(=O)(=O)c1cc(CC(=O)O)cc(C(F)(F)F)c1 [Example 204, {3-[2,6-Dimethyl-4-(5-trifluoromethyl-pyridin-2-yl)-piperazine-1-sulfonyl]-5-trifluoromethyl-phenyl}-acetic acid]
5 to 100 µM	< 5 µM	5 to 100 µM	Cc1ccc(S(=O)(=O)N2CCN(c3ccc(C(F)(F)F)cn3)C(C(F)(F)F)C2)cc1CC(=O)O (stereo not drawn) [Example 205, {2-Methyl-5-[3-trifluoromethyl-4-(5-trifluoromethyl-pyridin-2-yl)-piperazine-1-sulfonyl]-phenyl}-acetic acid]
5 to 100 µM	< 5 µM	> 100 µM	COc1ccc(S(=O)(=O)N2[C@H](C)CN(c3ccc(OC(F)(F)F)cn3)C[C@@H]2C)cc1CC(=O)O [Example 206, {5-[2,6-Dimethyl-4-(5-trifluoromethoxy-pyridin-2-yl)-piperazine-1-sulfonyl]-2-methoxy-phenyl}-acetic acid]
5 to 100 µM	< 5 µM	5 to 100 µM	O=C(O)Cc1cc(S(=O)(=O)N2CCN(c3ccc(C(F)(F)F)cn3)CC2)ccc1O [Example 207, {5-[4-(5-trifluoromethyl-pyridin-2-yl)-piperazine-1-sulfonyl]-2-hydroxy-phenyl}-acetic acid]
> 100 µM	< 5 µM	5 to 100 µM	O=C(O)Cc1cc(S(=O)(=O)N2CCN(c3ccc(C(F)(F)F)cc3)CC2)ccc1O [Example 208, {5-[4-(4-trifluoromethyl-phenyl)-piperazine-1-sulfonyl]-2-hydroxy-phenyl}-acetic acid]
> 100 µM	5 to 100 µM	> 100 µM	C[C@@H]1CN(c2ccc(OC(F)(F)F)cc2)C[C@H](C)N1S(=O)(=O)c1ccc(O)c(CC(=O)O)c1 [Example 209, {5-[2,6-Dimethyl-4-(4-trifluoromethoxy-phenyl)-piperazine-1-sulfonyl]-2-hydroxy-phenyl}-acetic acid]
5 to 100 µM	5 to 100 µM	5 to 100 µM	O=C(O)CSCc1cccc(S(=O)(=O)N2CCN(c3ccc(C(F)(F)F)cc3)CC2)c1 [Example 210, {3-[4-(4-Trifluoromethyl-phenyl)-piperazine-1-sulfonyl]-benzylsulfanyl}-acetic acid]
> 100 µM	> 100 µM	> 100 µM	O=C(O)COCc1cccc(S(=O)(=O)N2CCN(c3ccc(C(F)(F)F)cc3)CC2)c1 [Example 211, {3-[4-(4-Trifluoromethyl-phenyl)-piperazine-1-sulfonyl]-benzyloxy}-acetic acid]
5 to 100 µM	> 100 µM	5 to 100 µM	CC(C)(OCc1cccc(S(=O)(=O)N2CCN(c3ccc(C(F)(F)F)cc3)CC2)c1)C(=O)O [Example 212, 2-Methyl-2-{3-[4-(4-trifluoromethyl-phenyl)-piperazine-1-sulfonyl]-benzyloxy}-propionic acid]
5 to 100 µM	< 5 µM	5 to 100 µM	Cc1cc(CC(=O)O)cc(S(=O)(=O)N2CCN(c3ccc(OC(F)(F)F)cc3)C[C@@H]2C)c1 [Example 213, {3-Methyl-5-[2-(S)-methyl-4-(4-trifluoromethoxy-phenyl)-piperazine-1-sulfonyl]phenyl}-acetic acid]
5 to 100 µM	< 5 µM	5 to 100 µM	Cc1ccc(S(=O)(=O)N2CCN(c3ccc(OC(F)(F)F)cc3)C[C@@H]2C)cc1CC(=O)O [Example 214, {2-Methyl-5-[2-(S)-methyl-4-(4-trifluoromethoxy-phenyl)-piperazine-1-sulfonyl]-phenyl}-acetic acid]
5 to 100 µM	< 5 µM	5 to 100 µM	C[C@H]1CN(c2ccc(C(F)(F)F)c(F)c2)CCN1S(=O)(=O)c1cccc(CC(=O)O)c1 [Example 215, {3-[4-(3-Fluoro-4-trifluoromethyl-phenyl)-2-(S)-methyl-piperazine-1-sulfonyl]-phenyl}-acetic acid]
5 to 100 µM	< 5 µM	5 to 100 µM	Cc1cc(CC(=O)O)cc(S(=O)(=O)N2CCN(c3ccc(C(F)(F)F)c(F)c3)C[C@@H]2C)c1 [Example 216, {3-[4-(3-Fluoro-4-trifluoromethyl-phenyl)-2-(S)-methyl-piperazine-1-sulfonyl]-5-methyl-phenyl}-acetic acid]
5 to 100 µM	< 5 µM	5 to 100 µM	Cc1ccc(S(=O)(=O)N2CCN(c3ccc(C(F)(F)F)c(F)c3)C[C@@H]2C)cc1CC(=O)O [Example 217, {5-[4-(3-Fluoro-4-trifluoromethyl-phenyl)-2-(S)-methyl-piperazine-1-sulfonyl]-2-methyl-phenyl}-acetic acid]
5 to 100 µM	< 5 µM	< 5 µM	C[C@H]1CN(S(=O)(=O)c2cccc(CC(=O)O)c2)CCN1c1ccc(C(F)(F)F)c(F)c1 [Example 218, {3-[4-(3-Fluoro-4-trifluorometbyl-phenyl)-3-(S)-methyl-piperazine-1-sulfonyl]-phenyl}-acetic acid]
5 to 100 µM	< 5 µM	5 to 100 µM	Cc1cc(CC(=O)O)cc(S(=O)(=O)N2CCN(c3ccc(C(F)(F)F)c(F)c3)[C@@H](C)C2)c1 [Example 219]
> 100 µM	< 5 µM	5 to 100 µM	C[C@@H]1CN(c2ccc(C(F)(F)F)cn2)C[C@H](C)N1S(=O)(=O)c1cccc(CC(=O)O)c1 [Example 220, {3-[2,6-Dimethyl-4-(5-trifluoromethyl-pyridin-2-yl)-piperazine-1-sulfonyl]-phenyl}-acetic acid]
5 to 100 µM	< 5 µM	5 to 100 µM	C[C@H]1CN(S(=O)(=O)c2cccc(CC(=O)O)c2)CCN1c1ccc(OC(F)(F)F)cc1 [Example 221, {3-[3-(s)-Methyl-4-(4-trifluoromethoxy-phenyl)-piperazine-1-sulfonyl]-phenyl}-acetic acid]
